Results on four compounds are retold here after publication PMC4745983 (Frontiers in Cell and Developmental Biology, 2016).

Marks after values point to notes of the source that are not given here.

One assay deals with E. coli ATCC 700928. The note with it: indicator strain E. coli ATCC 700928; ref Sainath Rao et al., [2013]; cited from earlier work. An excerpt: (§1) Table 1 List of selected peptides with anti-Gram-negative bacteria activity. | column: MIC(μM)
The subject of the next assay is E. coli CECT101. The class given is cell-based, Escherichia coli. The conditions noted are these: growth curves, 18 h; experiment repeated three times. How it is done: (§2) L. lactis strains were cultured in M17 broth supplemented with 0.5% (w/v) glucose (GM17) for genetic manipulation or in minimal expression medium (MEM) for protein expression at 30°C (Rink et al., [2005]). E. coli CECT101 was grown in Luria-Bertani broth aerated by shaking (200 rpm) at 37°C.
(§3) The indicator strains were first cultured until OD (600 nm) reached 0.5. When testing the MIC value, the culture was diluted 1000 times with the appropriate medium. All the tests were performed with a temperature controlled plate reader (Tecan infinite F200, Tecan Group AG) in a 96-well plate (Greiner Bio-one). The peptides were first diluted in gradient with medium and then mixed with diluted indicator strains. The final concentration of the peptides ranged from 0.00625 to 0.8 μM against L. lactis MG1363 and from 0.25 to 32 μM against E. coli CECT101 in 100 μl volume. The plate was incubated at 30°C or 37°C for 18 h depending on the indicator strain being L. lactis or E. coli, respectively. OD (600 nm) was checked every 30 min. For E. coli, 2 min of shaking was performed before every check. When testing the activity of nisin against E. coli in the presence of EDTA, an EDTA solution was prepared and added to a final concentration of 50, 110, or 250 μM. The minimal concentration of peptide causing no observed growth of indicator strains was considered as the MIC value.

The subject of the next assay is L. lactis MG1363. The class given is cell-based, Lactococcus lactis. The note with it: from MIC values. The protocol:
as §2, §3

The next assay deals with E. coli CIP. Nature of the assay: Growth curve inhibition of E. coli CIP. The format is cell-based, Escherichia coli. The note with it: growth curves of 8μM nisin and 8μM GNT16; Luria-Bertani broth, 37°C.
Assay [1] concerns Enterobacter aerogenes CECT684. Nature of the assay: Growth curve inhibition of Enterobacter aerogenes CECT684. The conditions noted are these: growth curves of 8μM nisin and 8μM GNT16; GM17, 37°C. The format is cell-based.
The next assay relates to E. coli O157:H7. The note with it: indicator strain E. coli O157:H7; ref Bikker et al., [2006]; cited from earlier work.
Text: as §1

A further assay deals with E. coli UB1005. The note with it: indicator strain E. coli UB1005; ref Hilpert et al., [2005]; cited from earlier work.
Text: as §1

As to RLLFRKIRRLKR [EC5], the MIC with E. coli ATCC 700928 is listed as 4.8^d μM.

Regarding `C=C1NC(=O)[C@H]([C@@H](C)CC)NC(=O)[C@H](NC(=O)/C(=C/C)NC(=O)[C@@H](N)[C@@H](C)CC)CSC[C@@H](C(=O)N[C@H]2C(=O)N3CCC[C@H]3C(=O)NCC(=O)N[C@H](C(=O)N[C@@H](CCCCN)C(=O)N[C@H]3C(=O)NCC(=O)N[C@@H](C)C(=O)N[C@@H](CC(C)C)C(=O)N[C@@H](CCSC)C(=O)NCC(=O)N[C@H](C(=O)N[C@@H](CC(N)=O)C(=O)N[C@@H](CCSC)C(=O)N[C@@H](CCCCN)C(=O)N[C@H]4C(=O)N[C@@H](C)C(=O)N[C@H]5C(=O)N[C@@H](CS[C@H]4C)C(=O)N[C@@H](Cc4c[nH]cn4)C(=O)N[C@H](C(=O)N[C@@H](CO)C(=O)N[C@H](C(=O)N[C@@H](Cc4c[nH]cn4)C(=O)N[C@H](C(=O)NC(=C)C(=O)N[C@@H](CCCCN)C(=O)N4CCC[C@H]4C(=O)N[C@@H](CCCNC(=N)N)C(=O)N4CCC[C@H]4C(=O)N4CCC[C@H]4C(=O)N[C@@H](Cc4c[nH]cn4)C(=O)N4CCC[C@H]4C(=O)N[C@@H](CCCNC(=N)N)C(=O)N[C@@H](CC(C)C)C(=O)O)C(C)C)[C@@H](C)CC)CS[C@H]5C)CS[C@H]3C)CS[C@H]2C)NC(=O)[C@H](CC(C)C)NC1=O` [GNT16], in the assay on E. coli CECT101, the “Concentration that fully inhibits growth of E. coli CECT101 within 18 h (Figure 3)” value was found to be 8 µM. The “Decrease of activity against L. lactis MG1363 relative to nisin” value in the assay on L. lactis MG1363 is recorded as 32 times. Further, in the assay with E. coli CIP, the “Inhibitory activity against E. coli CIP compared with nisin” value was “equal or slightly better inhibitory activity than nisin”. In assay [1], the “Inhibitory activity against Enterobacter aerogenes CECT684 compared with nisin” value is “equal or slightly better inhibitory activity than nisin”.

On to GKPRPYSPRPTSHPRPIRV [Drosocin], for which, in the assay on E. coli O157:H7, the MIC was 25^c μM.

RIWVIWRR-NH2 [Bac8c]: the MIC in the assay on E. coli UB1005 is given as 1.7^e μM.
